Assay [1] deals with LTB4 production. Conditions: oral administration; mouse blood ex vivo; cited from earlier work.
Assay [2] relates to LTB4 production. Conditions: oral administration; rat peritoneum in vivo; cited from earlier work.
The next assay concerns colitis symptoms. The note with it: eight weeks of treatment; cotton top tamarins; cited from earlier work.
In assay [3] the target is T1, recombinant human LTA4 hydrolase (rhLTA4H) (Homo sapiens, UniProt P09960).
T1 construct: made in house; host or cells: Spodoptera frugiperda (Sf-9) cells, baculovirus (pFastBac1)
T1 sequence (P09960 1-611): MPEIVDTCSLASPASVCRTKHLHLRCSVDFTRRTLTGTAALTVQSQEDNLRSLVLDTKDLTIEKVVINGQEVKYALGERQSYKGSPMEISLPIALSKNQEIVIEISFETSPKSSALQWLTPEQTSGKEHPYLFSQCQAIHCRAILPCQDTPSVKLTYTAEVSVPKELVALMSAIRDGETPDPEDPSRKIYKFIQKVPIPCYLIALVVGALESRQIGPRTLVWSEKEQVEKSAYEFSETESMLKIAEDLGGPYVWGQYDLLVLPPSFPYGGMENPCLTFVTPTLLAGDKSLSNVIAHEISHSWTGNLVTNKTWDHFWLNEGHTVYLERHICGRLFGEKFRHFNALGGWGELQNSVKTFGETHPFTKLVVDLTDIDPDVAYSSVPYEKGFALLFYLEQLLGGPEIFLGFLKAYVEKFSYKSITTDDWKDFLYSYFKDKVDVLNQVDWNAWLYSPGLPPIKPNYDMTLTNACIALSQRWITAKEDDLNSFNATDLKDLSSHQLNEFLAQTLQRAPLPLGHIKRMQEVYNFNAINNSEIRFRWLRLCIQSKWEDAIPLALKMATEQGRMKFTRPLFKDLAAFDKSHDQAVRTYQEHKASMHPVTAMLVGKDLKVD
Kind of assay: Recombinant Human LTA4 Hydrolase Assay for LTA4 Hydrolase Inhibitor Activity. It is filed as biochemical. Conditions: average of results obtained; LTB4 quantified by enzyme-linked immunoassay. In short, it runs like this: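 LTB4 formation, quantified by EIA after 10 min at rt, was the read-out once 9 ng LTA4 (free acid) was added to recombinant human enzyme (36 ng, Sf-9 expressed) that had sat 10 min with compound. Buffer: 0.1 M potassium phosphate pH 7.4 with fatty-acid-free BSA; IC50 by 4-parameter fit.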

Counter-ions that a name gives are not always drawn. Like-named read-outs stand apart in the source and are kept apart here.

For `CN(CCCOc1ccc(Cc2ccccc2)cc1)CCC(=O)O.Cl` [SC57461], the “inhibition of ionophore-induced LTB4 production” value in the assay on LTB4 production [1] and in the assay on LTB4 production [2] was “caused inhibition” each time. For the same molecule, the colitis symptoms entry with colitis symptoms was “significantly improved colitis symptoms”.

For `CC(=O)N[C@@H]1C[C@H]2CC[C@@H](C1)N2CCOc1ccc(Oc2nc3c(Cl)cccc3s2)cc1` [Example 240, meso-exo-N-(8-{2-[4-(4-Chloro-benzothiazol-2-yloxy)-phenoxy]-ethyl}-8-aza-bicyclo[3.2.1]oct-3-yl)-acetamide], the inhibition constant Ki in assay [3] was found to be 510 nM.

For `CC(=O)N[C@@H]1C[C@H]2CC[C@@H](C1)N2CCc1ccc(Oc2nc3ccc(Cl)cc3s2)cc1` [Example 163, meso-exo-N-(8-{2-[4-(6-Chloro-benzothiazol-2-yloxy)-phenyl]-ethyl}-8-aza-bicyclo[3.2.1]oct-3-yl)-acetamide], the Ki in assay [3] was determined as 86 nM.

With `CS(=O)(=O)N1CC2CN(Cc3ccc(Oc4nc5ccccc5s4)cc3)CC2C1` (stereo not drawn) [Example 129, 2-[4-(5-Methanesulfonyl-hexahydro-pyrrolo[3,4-c]pyrrol-2-ylmethyl)-phenoxy]-benzothiazole], the Ki in assay [3] was found to be 35 nM.

In the case of `CS(=O)(=O)N1C[C@@H]2C[C@H]1CN2CCc1ccc(Oc2nc3ccc(Cl)cc3s2)cc1` [Example 238, (S,S)-6-Chloro-2-{4-[2-(5-methanesulfonyl-2,5-diaza-bicyclo[2.2.1]hept-2-yl)-ethyl]-phenoxy}-benzothiazole], the Ki in assay [3] was found to be 651 nM.

As to `CS(=O)(=O)N[C@@H]1C[C@H]2CC[C@@H](C1)N2CCOc1ccc(Oc2nc3ccc(F)cc3s2)cc1` [Example 284, meso-exo-N-(8-{2-[4-(6-Fluoro-benzothiazol-2-yloxy)-phenoxy]-ethyl}-8-aza-bicyclo[3.2.1]oct-3-yl)-methanesulfonamide], the Ki in assay [3] turned out to be 29 nM.

`CC(=O)N[C@H]1C[C@H]2CC[C@@H](C1)N2Cc1ccc(Cc2nc3ccccc3o2)cc1` [Example 6, meso-endo-N-[8-(4-Benzooxazol-2-ylmethyl-benzyl)-8-aza-bicyclo[3.2.1]oct-3-yl]-acetamide]: the Ki in assay [3] is 50 nM.

Regarding `CC(=O)N1[C@@H]2CC[C@H]1C[C@H](NCCc1ccc(Oc3nc4c(Cl)cccc4s3)cc1)C2` [Example 275, meso-exo-1-(3-{2-[4-(4-Chloro-benzothiazol-2-yloxy)-phenyl]-ethylamino}-8-aza-bicyclo[3.2.1]oct-8-yl)-ethanone], the Ki in assay [3] is 264 nM.

With `NC(=O)N1CC2CN(Cc3ccc(Oc4nc5ccccc5s4)cc3F)CC2C1` (stereo not drawn) [Example 159, 5-[4-(Benzothiazol-2-yloxy)-2-fluoro-benzyl]-hexahydro-pyrrolo[3,4-c]pyrrole-2-carboxylic acid amide], the Ki in assay [3] worked out at 110 nM.

With `CC(=O)N[C@H]1C[C@H]2CC[C@@H](C1)N2CCOc1ccc(Cc2nc3ccccc3s2)cc1` [Example 152, N-{8-[2-(4-Benzothiazol-2-ylmethyl-phenoxy)-ethyl]-8-aza-bicyclo[3.2.1]oct-3-yl}-acetamide], the Ki in assay [3] is 75 nM.

Regarding `c1ccc2sc(Oc3ccc(CN4C[C@@H]5C[C@H]4CN5)cc3)nc2c1` [Example 1B, (S,S)-2-[4-(2,5-Diaza-bicyclo[2.2.1]hept-2-ylmethyl)-phenoxy]-benzothiazole hydrochloride], the Ki in assay [3] turned out to be 54 nM.

Turning to `O=C(CO)N1CC2CCN(Cc3ccc(Oc4nc5ccccc5s4)cc3)CC2C1` (stereo not drawn) [Example 117, 1-{5-[4-(Benzothiazol-2-yloxy)-benzyl]-octahydro-pyrrolo[3,4-c]pyridin-2-yl}-2-hydroxy-ethanone], the Ki in assay [3] stood at 20 nM.

Regarding `CC(=O)N[C@H]1C[C@H]2CC[C@@H](C1)N2CCOc1ccc(Oc2nc3cc(F)ccc3s2)cc1` [Example 216, meso-endo-N-(8-{2-[4-(5-Fluoro-benzothiazol-2-yloxy)-phenoxy]-ethyl}-8-aza-bicyclo[3.2.1]oct-3-yl)-acetamide], in assay [3], the Ki was determined as 100 nM.

As to `CS(=O)(=O)N1C[C@H]2C[C@@H]1CN2CCOc1ccc(Oc2nc3ccccc3s2)cc1` [Example 223, (R,R)-2-{4-[2-(5-Methanesulfonyl-2,5-diaza-bicyclo[2.2.1]hept-2-yl)-ethoxy]-phenoxy}-benzothiazole], in assay [3], the Ki was 64 nM.

Take `CC(=O)N1[C@@H]2CC[C@H]1C[C@@H](NCCc1ccc(Oc3nc4cc(F)ccc4s3)cc1)C2` [Example 197, meso-endo-1-(3-{2-[4-(5-Fluoro-benzothiazol-2-yloxy)-phenyl]-ethylamino}-8-aza-bicyclo[3.2.1]oct-8-yl)-ethanone]: in assay [3], the Ki was 85 nM.

On to `NC(=O)N1CC2CCC(C1)N2Cc1ccc(Oc2nc3ccccc3s2)cc1F` [Example 76, meso-8-[4-(Benzothiazol-2-yloxy)-2-fluoro-benzyl]-3,8-diaza-bicyclo[3.2.1]octane-3-carboxylic acid amide], for which, in assay [3], the Ki is 195 nM.

As to `CC(=O)N1CC2CCC(C1)N2Cc1ccc(Oc2nc3ccccc3s2)cc1F` [Example 77, meso-1-{8-[4-(Benzothiazol-2-yloxy)-2-fluoro-benzyl]-3,8-diaza-bicyclo[3.2.1]oct-3-yl}-ethanone], in assay [3], the Ki worked out at 12 nM.

In the case of `NC(=O)N1[C@@H]2CC[C@H]1C[C@H](NCCOc1ccc(Oc3nc4ccc(F)cc4s3)cc1)C2` [Example 267, meso-exo-3-{2-[4.(6-Fluoro-benzothiazol-2-yloxy)-phenoxy]-ethylamino}-8-aza-bicyclo[3.2.1]octane-8-carboxylic acid amide], the Ki in assay [3] came out at 296 nM.

Regarding `CS(=O)(=O)N1[C@@H]2CC[C@H]1C[C@H](NCCOc1ccc(Oc3nc4c(F)cccc4s3)cc1)C2` [Example 213, meso-exo-{2-[4-(4-Fluoro-benzothiazol-2-yloxy)-phenoxy]-ethyl}-(8-methanesulfonyl-8-aza-bicyclo[3.2.1]oct-3-yl)-amine], the Ki in assay [3] is 20 nM.

Consider `NC(=O)N1C[C@@H]2C[C@H]1CN2CCc1cccc(Oc2nc3ccccc3s2)c1` [Example 39, (S,S)-5{2-[3-(Benzothiazol-2-yloxy)-phenyl]-ethyl}2,5-diaza-bicyclo[2.2.1]heptane-2-carboxylic acid amide], for which the Ki in assay [3] amounted to 100 nM.

On to `CC(=O)N1CC2CCC(C1)N2CCc1ccc(Oc2nc3ccc(Cl)cc3s2)cc1` [Example 250, meso-1-(8-{2-[4-(6-Chloro-benzothiazol-2-yloxy)-phenyl]-ethyl}-3,8-diaza-bicyclo[3.2.1]oct-3-yl)-ethanone], for which, in assay [3], the Ki came out at 232 nM.

As to `NC(=O)N1C[C@@H]2C[C@H]1CN2Cc1ccc(Oc2nc3ccccc3s2)cc1` [Example 32, (S,S)-5-[4-(Benzothiazol-2-yloxy)-benzyl]-2,5-diaza-bicyclo[2.2.1]heptane-2-carboxylic acid amide], the Ki in assay [3] is 3 nM.

Regarding `COCC(=O)N1C[C@@H]2C[C@H]1CN2CCc1cccc(Oc2nc3ccccc3s2)c1` [Example 43], the Ki in assay [3] is 442 nM.

`CC(=O)N1C[C@@H]2C[C@H]1CN2Cc1ccc(Oc2nc3ccc(C)cc3s2)cc1` [Example 270, (S,S)-1-{5-[4-(6-Methyl-benzothiazol-2-yloxy)-benzyl]-2,5-diaza-bicyclo[2.2.1]hept-2-yl}-ethanone]: the Ki in assay [3] was 72 nM.

On to `CC(=O)N1CC2CCC(C1)N2CCOc1ccc(Oc2nc3cc(F)ccc3s2)cc1` [Example 199, meso-1-(8-{2-[4-(5-Fluoro-benzothiazol-2-yloxy)-phenoxy]-ethyl}-3,8-diaza-bicyclo[3.2.1]oct-3-yl)-ethanone], for which, in assay [3], the Ki came out at 20 nM.

`CC(C)(O)C(=O)N1C2CCC1CN(Cc1ccc(Oc3nc4ccccc4s3)cc1)C2` [Example 53, meso-1-{3-[4-(Benzothiazol-2-yloxy)-benzyl]-3,8-diaza-bicyclo[3.2.1]oct-8-yl}-2-hydroxy-2-methyl-propan-1-one]: the Ki in assay [3] worked out at 117 nM.

As for `CS(=O)(=O)N1C[C@@H]2C[C@H]1CN2CCc1cccc(Oc2nc3ccccc3s2)c1` [Example 48, (S,S)-2-{3-[2-(5-Methanesulfonyl-2,5-diaza-bicyclo[2.2.1]hept-2-yl)-ethyl}phenoxy]benzothiazole], in assay [3], the Ki was found to be 1170 nM.

Regarding `NC(=O)N[C@@H]1C[C@H]2CC[C@@H](C1)N2CCOc1ccc(Oc2nc3ccc(Cl)cc3s2)cc1` [Example 234, meso-exo-(8-{2-[4-(6-Chloro-benzothiazol-2-yloxy)-phenoxy]-ethyl}-8-aza-bicyclo[3.2.1]oct-3-yl)-urea], the Ki in assay [3] is 72 nM.

(Values after patent US8344008B2 (Janssen Pharmaceutica NV, priority 2007, dated 2013).)
